“And” between values parts separate entries of the source, which are not always exact repeats. Identical values can stand only once.

Chain of Alpha-glucosidase MAL12 (P53341 whole entry): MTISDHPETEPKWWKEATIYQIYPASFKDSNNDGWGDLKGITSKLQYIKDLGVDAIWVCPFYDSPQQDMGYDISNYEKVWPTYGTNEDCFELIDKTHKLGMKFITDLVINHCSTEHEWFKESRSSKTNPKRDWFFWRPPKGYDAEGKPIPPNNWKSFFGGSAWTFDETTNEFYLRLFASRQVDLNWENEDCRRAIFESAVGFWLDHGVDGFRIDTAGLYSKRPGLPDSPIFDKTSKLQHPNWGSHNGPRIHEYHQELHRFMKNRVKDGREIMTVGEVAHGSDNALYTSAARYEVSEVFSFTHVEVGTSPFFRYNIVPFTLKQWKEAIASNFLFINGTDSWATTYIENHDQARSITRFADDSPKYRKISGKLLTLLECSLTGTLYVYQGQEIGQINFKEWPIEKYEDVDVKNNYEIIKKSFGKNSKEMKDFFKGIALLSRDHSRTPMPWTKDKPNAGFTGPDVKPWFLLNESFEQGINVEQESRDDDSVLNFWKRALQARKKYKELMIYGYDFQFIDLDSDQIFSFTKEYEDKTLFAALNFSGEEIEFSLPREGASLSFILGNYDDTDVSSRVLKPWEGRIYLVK

In this assay the target is Alpha-glucosidase MAL12 (Saccharomyces cerevisiae (strain ATCC 204508 / S288c), UniProt P53341). As to the kind of experiment: Inhibition Assay. Particulars: pH 7. The method, then:
In this study, the inhibition assay of yeast enzyme was performed in 100 mM phosphate buffer pH 7.0 at 25°C with minor changes, according to the methods reported previously. [Saijyo et al., J. Oleo. […] After centrifugation, the supernatant was dialyzed against 10 mM potassium phosphate buffer (pH 7.0) containing 0.
Turning to `O=c1[nH]c2c(c(=O)[nH]1)C(C(O)C(O)C(O)C(O)CO)c1c([nH]c(=O)[nH]c1=O)N2c1ccc(O)cc1` (stereo not drawn) [α-Gl inhibitor, C1], the IC50 – broadly, the concentration that inhibits the measured activity by half – amounted to 74.9 µM; the Ki (as a rule, a measure of affinity in units of concentration, obtained from inhibition or displacement) is 70 µM and 170 µM.

`Nc1ccc(S(=O)(=O)c2ccc(N3c4[nH]c(=O)[nH]c(=O)c4C(C(O)C(O)C(O)C(O)CO)c4c3[nH]c(=O)[nH]c4=O)cc2)cc1` (stereo not drawn) [α-Gl inhibitor, C3]: the IC50 was 9.6 µM and the affinity, expressed as Ki, was 14 µM.

In the case of `O=c1[nH]c2c(c(=O)[nH]1)C(C(O)C(O)C(O)C(O)CO)c1c([nH]c(=O)[nH]c1=O)N2c1ccc(Br)cc1` (stereo not drawn) [α-Gl inhibitor, C2], it took 25.1 µM to reach half-maximal inhibition (IC50); the Ki is 30 µM and 130 µM.

The values are drawn from BindingDB's records for doi:10.3109/14756366.2012.727812 (Shiraz University, 2013).
